Laboratory results taken from US12263248B2, “Compounds and compositions for intracellular delivery of therapeutic agents” (ModernaTX, Inc., priority 2018, dated 2025).
Marks after values point to notes of the source that are not given here.

Legend:
hEPO mRNA [1] = test: hEPO expression after subcutaneous administration to mice; type: in vivo, female CD-1 mice; details: relative to MC3
Description: The effect of the lipids of the disclosure on protein expression upon subcutaneous administration was studied. Formulations containing lipids of the disclosure and an mRNA expressing luciferase or hEPO were administered subcutaneously to female CD-1 mice at 0.5 mpk. Expression levels were obtained via whole body luminescent imaging (BLI) at 3, 6 and 24 hours after injection and expression levels in liver, spleen and at the injection site were evaluated ex vivo after 24 hours. […] See also Tables 35 and 36, and FIGS. 19 and 27.
Table 36 summarizes the hEPO expression levels using various nanoparticle compositions of the disclosure as compared to the hEPO expression level using a formulation containing MC3 or Compound 18, following subcutaneous administration, as described above.

[2] = Residual lipid levels in rat liver and spleen (UPLC-MS); type: in vivo; details: for % Lipid Remaining in liver, 48 h: 2 mpk, assuming 300 g rat and 15 g liver
Procedure, shortened: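 Rats received a single intravenous dose of lipid nanoparticle composition, and liver tissue was later collected to quantify residual lipid. Weighed tissue was homogenized in Milli-Q water (900 μL per 100 mg tissue) using an Omni probe homogenizer. 50 μL aliquots were mixed with 400 μL spiking solution, vortexed, centrifuged, and analyzed by UPLC on a C8 column with positive-mode ESI detection on a Sciex API5500 mass spectrometer.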

hEPO mRNA [3] = test: hEPO expression after intravenous administration to rats; type: in vivo, rat; details: for hEPO expression: rat; for hEPO expression / Lipid/MC3 hEPO conc. ratio 0.2 mpk / Lipid/MC3 hEPO conc. ratio 2 mpk: intravenous, 6 hours; for Lipid/MC3 hEPO conc. ratio 0.2 mpk / Lipid/MC3 hEPO conc. ratio 2 mpk: rats; for Lipid/MC3 hEPO expression: 6 hours after administration
Procedure, shortened: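 Rats dosed intravenously once with nanoparticle composition, 0.2 or 2.0 mpk, formulated by the standard MC3 method. Tail-vein blood sampled at 6 h or at time points from 0.25 to 48 h. hEPO measured by ELISA.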

In the case of `CCCCCCCCCOC(=O)CCCCCCCN(CCCCCCCC(=O)OC(CCCCCCCC)CCCCCCCC)CCCNC(=S)N(C)C` [Compound 111, Heptadecan-9-yl 8-((3-(3,3-dimethylthioureido)propyl)(8-(nonyloxy)-8-oxooctyl)amino)octanoate], the “Novel lipid/MC3 expression ratio, 6 hr. time point, s.c. hEPO 0.5 mpk” value (“Novel lipid/MC3 expression ratio” for short) (hEPO mRNA [1]) was 6.40.
For `CCCCCCCCC(CCC)OC(=O)CCCCCCCN(CCO)CCCCCCCC(=O)OC(CCCCCCCC)CCCCCCCC` (centres unmarked) [Compound 50, dodecan-4-yl 8-((8-(heptadecan-9-yloxy)-8-oxooctyl)(2-hydroxyethyl)amino)octanoate], the “% Lipid Remaining in liver, 48 h” value ([2]; rats) was 15.9%, the hEPO expression (hEPO mRNA [3]; 0.2 mpk) was 2.62e+06 pg/mL and the hEPO expression (hEPO mRNA [3]; 2 mpk) was 2.81e+07 pg/mL. For the same compound, the “Lipid/MC3 hEPO conc. ratio 0.2 mpk” value (hEPO mRNA [3]; 0.2 mpk) was 3.41 and the “Lipid/MC3 hEPO conc. ratio 2 mpk” value (hEPO mRNA [3]; 2 mpk) was 3.03.
With `CCCCCCCCCOC(=O)CCCN(CCO)CCCCCCCC(=O)OC(CCCCCCCC)CCCCCCCC` [Compound 26, Heptadecan-9-yl 8-((2-hydroxyethyl)(4-(nonyloxy)-4-oxobutyl)amino) octanoate] the “% dose remaining Rat liver tissue, 48 h” value ([2]; Sprague Dawley rat liver 48 h after 2 mg/kg bolus dose mRNA) was 20 ± 4.0^f %, the “parent amino lipid levels in the liver” value ([2]; Sprague Dawley rats, 48 h post dose) was 20% and the “% lipid remaining in liver after 48 hours” value ([2]; liver) was 20%. The “% Lipid Remaining in liver, 48 h” value ([2]; rats) was 20%, the “lipid levels in the liver after 48 hours” value ([2]; rats, i.v., dose response study) was “about 19%” and the “Lipid/MC3 hEPO expression” value (hEPO mRNA [3]; 2 mpk dose to rat) was 4.95. The “Lipid/MC3 hEPO conc. ratio 2 mpk” value (hEPO mRNA [3]; 2 mpk) was 4.95.
For `CCCCCCCCC(CC)OC(=O)CCCCCCCN(CCO)CCCCCCCC(=O)OC(CCCCCCCC)CCCCCCCC` (centres unmarked) [Compound 49, heptadecan-9-yl 8-((2-hydroxyethyl)(8-oxo-8-(undecan-3-yloxy)octyl)amino)octanoate], the “% Lipid Remaining in liver, 48 h” value ([2]; rats) was 12.6%, the “Novel lipid/MC3 expression ratio” value (hEPO mRNA [1]) was 8.01 and the hEPO expression (hEPO mRNA [3]; 0.2 mpk) was 3.17e+06 pg/mL. For the same compound, the hEPO expression (hEPO mRNA [3]; 2 mpk) was 3.04e+07 pg/mL, the “Lipid/MC3 hEPO conc. ratio 0.2 mpk” value (hEPO mRNA [3]; 0.2 mpk) was 4.13 and the “Lipid/MC3 hEPO conc. ratio 2 mpk” value (hEPO mRNA [3]; 2 mpk) was 3.28.
For `CCCCCCCCCOC(=O)CCCCCCCN(CCCCCCCC(=O)OC(CCCCCCCC)CCCCCCCC)CCCNS(C)(=O)=O` [Compound 109, Heptadecan-9-yl 8-((3-(methylsulfonamido)propyl)(8-(nonyloxy)-8-oxooctyl)amino)octanoate], the “Novel lipid/MC3 expression ratio” value (hEPO mRNA [1]) was 6.78.
With `CCCCCCCCCOC(=O)CCCCCCCN(CCO)CCCCCCCCCC(=O)OC(CCCCCC)CCCCCC` [Compound 147, Tridecan-7-yl 10-((2-hydroxyethyl)(8-(nonyloxy)-8-oxooctyl)amino)decanoate] the “% dose remaining, liver, 24 h” value ([2]; Table 19B, liver, 24 h) was 0.00%, the “AUC (hEPO)” value (hEPO mRNA [3]; Table 19B) was 7.28e+07 pg·h/mL and the “Lipid/MC3 ([hEPO] ratio)” value (hEPO mRNA [3]; Table 19B, relative to MC3) was 3.69. The “Lipid/MC3 AUC” value (hEPO mRNA [3]; Table 19B, relative to MC3) was 3.94 and the “[hEPO]” value (hEPO mRNA [3]; Table 19B, species, dose and time not given) was 5.45e+06 pg/mL.
With `CCCC/C=C\CCC(CC/C=C\CCCC)OC(=O)CCCCCCCN(CCO)CCCCCCCC(=O)OCCCCCCCCC` [Compound 60, (5Z,12Z)-Heptadeca-5,12-dien-9-yl 8-((2-hydroxyethyl)(8-(nonyloxy)-8-oxooctyl)amino)octanoate] the “Novel lipid/MC3 expression ratio” value (hEPO mRNA [1]) was 6.59.
With `CCCCCCCCC(C)OC(=O)CCCCCCCN(CCO)CCCCCCCC(=O)OC(CCCCCCCC)CCCCCCCC` (centres unmarked) [Compound 48, decan-2-yl 8-((8-(heptadecan-9-yloxy)-8-oxooctyl)(2-hydroxyethyl)amino)octanoate] the “% lipid remaining in liver after 48 hours” value ([2]; liver) was 11.4%, the “% Lipid Remaining in liver, 48 h” value ([2]; rats) was 7.22% and the “Novel lipid/MC3 expression ratio” value (hEPO mRNA [1]) was 8.09. For the same compound, the “Lipid/MC3 hEPO expression” value (hEPO mRNA [3]; 0.2 mpk dose to rat) was 5.39, the “Lipid/MC3 hEPO expression” value (hEPO mRNA [3]; 2 mpk dose to rat) was 3.84 and the hEPO expression (hEPO mRNA [3]; 0.2 mpk) was 4.06e+06 pg/mL. The hEPO expression (hEPO mRNA [3]; 2 mpk) was 3.57e+07 pg/mL, the “Lipid/MC3 hEPO conc. ratio 0.2 mpk” value (hEPO mRNA [3]; 0.2 mpk) was 5.39 and the “Lipid/MC3 hEPO conc. ratio 2 mpk” value (hEPO mRNA [3]; 2 mpk) was 3.84.
